Like-named read-outs stand apart in the source and are kept apart here.
How the values were obtained:
[1] = test system: UM-UC-3 human bladder carcinoma cell line; test: IC50 determination, MTS assay, 72 h (Example 2); format: cell-based; conditions: Homo sapiens, UMUC3, 72 hours of drug exposure, read-out: IC50
Protocol: (§1) The following agents were evaluated in combination with PM00104: gemcitabine (Gemzar®) and cisplatin. The human bladder carcinoma cell lines selected for this assay were the following: 5637 and UM-UC-3 cell lines. 5637 cell line was grown in RPMI 1640 medium supplemented with 10% FBS, 1.5 g/L sodium bicarbonate, 4.5 g/L glucose, 10 mM HEPES, 1 mM sodium pyruvate, and 2 mM L-glutamine. UM-UC-3 cell line was grown in MEM Eagle's medium supplemented with 10% FBS and 2 mM L-glutamine.
(§2) a. […] It was used the same methodology as those disclosed in Example 1.
(§3) IC50 values were calculated from an average of three to four assays for each of the test agents.

[2] = test system: 5637 human bladder carcinoma cell line; test: IC50 determination, MTS assay, 72 h (Example 2); format: cell-based; conditions: Homo sapiens, 72 hours of drug exposure, read-out: IC50
Protocol: as §1, §2, §3

[3] = test system: NCI-H23 (lung cancer) cell line; test: IC50 determination, MIT (tetrazolium) assay, 72 h (Example 18); format: cell-based, human; conditions: Homo sapiens; NCI-H23, 72 hours of drug exposure
Protocol: NCI-H23 cells were grown in RPMI supplemented with 10% Fetal Bovine Serum (FBS), 1% penicillin/streptomycin and 2 mM L-glutamine.
Before plating, cell cultures were trypsinized and cell number estimated using an automated flow cytometer.
Cells were harvested and seeded in 96 well microtiter plates at the appropriate cell density (5,000-10,000 cells) in 150 μL of media and incubated for 24 hours to allow the cells to attach before drug addition.
After the incubation period (72 hours), 50 μL of MIT solution was added to each microtiter well and incubated for further 8 hours at 37° C. The culture medium was then removed and 50 μl, of DMSO were added to dissolve the MIT crystals. Optical densities were read at 540 nm on spectrophotometer microplate reader.
IC50 values were calculated from an average of two to four assays for each of the test agents.

[4] = test system: MIA PaCa-2 tumors; format: in vivo, mice; conditions: mg/kg/day: PM00104 0.90 IV
From the text: (§4) Female athymic nude mice (Harlan Sprague Dawley, Madison, Wis.) were utilized for all experiments. Animals were housed in ventilated rack caging with food and water ad libitum. The mice were acclimated for at least 5 days prior to tumor implantation with a tumor cell suspension.
The tumor model used in these studies was MIAPaCA-2 cell line, which was obtained from the ATCC (Manassas, Va.).
Each animal was implanted subcutaneously (SC) on the right flank, using a trochar, with 1×10^7 MIAPaCA-2 cells, from in vitro passage 18, in a 0.2 mL suspension of 50% Matrigel/50% serum free medium, without antibiotics. Matrigel is a biological extracellular matrix that is liquid at 4° C. and solid at 37° C., and it promotes tumor growth by maintaining the cells in close association in a localized area. Bacterial cultures were performed on aliquots of the cells prepared for implantation.
Tumor measurements were determined by using Vernier calipers. The formula to calculate volume for a prolate ellipsoid was used to estimate tumor volume (mm^3) from 2-dimensional tumor measurements: Tumor volume (mm^3)=[L×W^2]÷2, where L is the length and it is the longest diameter in mm, and W is the width and it is the shortest diameter in mm of a tumor. Assuming unit density, volume was converted to weight (i.e., 1 mm^3=1 mg).
Treatments were initiated on DPI (Day Post Implantation) 13. In these experiments, the combination therapy groups were treated by co-administering the two drugs at the same time, with no attempt to sequence the treatments.
(§5) Tumor size measurements were recorded twice weekly from the treatment initiation until the termination of the study.
(§6) Mean, standard deviation and standard error of the mean were determined for tumor volume for all animal groups at all assessments. Student's t test was performed on tumor volumes at each measurement day, including at the end of the study, to determine whether there were any statistically significant differences between combination treatment groups and single monotherapy treatment groups.
The definition and criteria for the evaluation of potentiation and the degree of additivity for the combination therapy were as follows:
Additivity was determined as discussed above by comparing the % of tumor growth inhibition of the monotherapy groups versus those of the combination group as follows: • 1. Determine the % of tumor growth inhibition, as 100-% T/C, for each of the drugs administered as monotherapy at the doses used in the combinations. % T/C was obtained by comparing the mean tumor weight in the treatment groups (T) to the mean tumor weight in the control group (C) (T/C×100%). • 2. The two scores were added together to determine the “expected response” if each agent produced the same response as it did when administered as monotherapy. • 3. This “expected response” was subtracted from the % of tumor growth inhibition determined for the combination therapy group: • a. […] If the resulting number was close to zero, the effect of combining the two drugs was determined as additive. • c.

[5] = test system: UM-UC-3 tumors; format: in vivo, mice; conditions: mg/kg/day: PM00104 0.90 IV, cisplatin 5 IP, gemcitabine 180 IP, paclitaxel 15 IP
Protocol: as §4
The tumor model used in these studies was UM-UC-3 cell line, which was obtained from the ATCC (Manassas, Va.).
UM-UC-3 cells were grown in minimum essential medium (Eagle's) supplemented with 10% FBS, 1.5 g/L sodium bicarbonate, 0.1 mM non-essential amino acids, 1 mM sodium pyruvate, and 2 mM L-glutamine. Each animal was implanted SC on the right flank, using a trochar and 1 cc syringe, with 5×10^6 UM-UC-3 cells, from in vitro passage 17, in a 0.2 mL suspension of 50% Matrigel and 50% serum free medium, without antibiotics. Bacterial cultures were performed on aliquots of the cells prepared for implantation.
Treatments were initiated on DPI 15.
as §5, §6

[6] = day 13, gemcitabine 140 IP, erlotinib 100 PO
[7] = day 15, gemcitabine 140 IP, erlotinib 100 PO
[8] = day 19, gemcitabine 140 IP, erlotinib 100 PO
[9] = day 22, gemcitabine 140 IP, erlotinib 100 PO
[10] = day 27, gemcitabine 140 IP, erlotinib 100 PO
[11] = day 29, gemcitabine 140 IP, erlotinib 100 PO
[12] = day 33, gemcitabine 140 IP, erlotinib 100 PO
[13] = day 36, gemcitabine 140 IP, erlotinib 100 PO

`COc1c(C)cc2c(c1O)[C@@H]1[C@@H]3Cc4c(OC(C)=O)c(C)c5c(c4[C@H](CNC(=O)/C=C/c4cccc(C(F)(F)F)c4)N3[C@@H](O)[C@H](C2)N1C)OCO5` [PM00104] gave an IC50 [1] of 0.0069 µg/mL, an IC50 [2] of 0.0056 µg/mL and an IC50 [3] of 5 nM. The “% Inhibition” value ([4]; day 13, erlotinib 50 PO) was 0.9%, the “% Inhibition” value [4, 6] was 0.9% and the “% T/C on day” value [4, 6] was 99.1%. For the same molecule, the “% Inhibition” value ([4]; day 15, erlotinib 50 PO) was 12.9%, the “% Inhibition” value [4, 7] was 12.9% and the “% T/C on day” value [4, 7] was 87.1%. For the same molecule, the “% Inhibition” value ([4]; day 19, erlotinib 50 PO) was 22.8%, the “% Inhibition” value [4, 8] was 22.8% and the “% T/C on day” value [4, 8] was 77.2%. For the same molecule, the “% Inhibition” value ([4]; day 22, erlotinib 50 PO) was 39.2%, the “% Inhibition” value [4, 9] was 39.2% and the “% T/C on day” value [4, 9] was 60.8%. The “% Inhibition” value ([4]; day 27, erlotinib 50 PO) was 30.8%, the “% Inhibition” value [4, 10] was 30.8% and the “% T/C on day” value [4, 10] was 69.2%. The “% Inhibition” value ([4]; day 29, erlotinib 50 PO) was 40.0%, the “% Inhibition” value [4, 11] was 40.0% and the “% T/C on day” value [4, 11] was 60.0%. For the same molecule, the “% Inhibition” value ([4]; day 33, erlotinib 50 PO) was 36.1%, the “% Inhibition” value [4, 12] was 36.1% and the “% T/C on day” value [4, 12] was 63.9%. The “% Inhibition” value ([4]; day 36, erlotinib 50 PO) was 43.4%, the “% Inhibition” value [4, 13] was 43.4% and the “% T/C on day” value [4, 13] was 56.6%. The “% Inhibition” value ([5]; day 15) was −0.8%, the “% T/C on day” value ([5]; day 15) was 100.8% and the “% Inhibition” value ([5]; day 20) was 52.8%. For the same molecule, the “% T/C on day” value ([5]; day 20) was 47.2%, the “% Inhibition” value ([5]; day 22) was 52.2% and the “% T/C on day” value ([5]; day 22) was 47.8%. For the same molecule, the “% Inhibition” value ([5]; day 26) was 60.2%, the “% T/C on day” value ([5]; day 26) was 39.8% and the “% Inhibition” value ([5]; day 29) was 47.4%. The “% T/C on day” value ([5]; day 29) was 50.4%, the “% Inhibition” value ([5]; day 34) was 50.7% and the “% T/C on day” value ([5]; day 34) was 49.3%. The “% Inhibition” value ([5]; day 40) was 37.1%, the “% T/C on day” value ([5]; day 40) was 62.9% and the “% Inhibition” value ([5]; day 43) was 35.1%. For the same molecule, the “% T/C on day” value ([5]; day 43) was 64.9%.

With `Nc1ccn([C@@H]2O[C@H](CO)[C@@H](O)C2(F)F)c(=O)n1` [Gemcitabine, gemcitabine] the IC50 [1] was 0.022 µg/mL, the IC50 [2] was 0.019 µg/mL and the IC50 [3] was 0.28 nM. The “% Inhibition” value [4, 6] was 0.0%, the “% T/C on day” value [4, 6] was 100.0% and the “% Inhibition” value [4, 7] was −5.7%. For the same molecule, the “% T/C on day” value [4, 7] was 105.7%, the “% Inhibition” value [4, 8] was 3.0% and the “% T/C on day” value [4, 8] was 97.0%. For the same molecule, the “% Inhibition” value [4, 9] was 14.5%, the “% T/C on day” value [4, 9] was 85.5% and the “% T/C on day” value [4, 10] was 89.5%. The “% Inhibition” value [4, 11] was 13.7%, the “% T/C on day” value [4, 11] was 86.3% and the “% T/C on day” value [4, 12] was 87.7%. The “% Inhibition” value [4, 13] was −0.3% and the “% T/C on day” value [4, 13] was 100.3%.

For `C#Cc1cccc(Nc2ncnc3cc(OCCOC)c(OCCOC)cc23)c1` [erlotinib], the “% Inhibition” value ([4]; day 13, erlotinib 50 PO) was −1.5%, the “% T/C on day” value ([4]; day 13, erlotinib 50 PO) was 101.5% and the “% Inhibition” value [4, 6] was −3.3%. For the same molecule, the “% T/C on day” value [4, 6] was 103.3%, the “% Inhibition” value ([4]; day 15, erlotinib 50 PO) was 3.3% and the “% T/C on day” value ([4]; day 15, erlotinib 50 PO) was 96.7%. The “% Inhibition” value [4, 7] was −15.4%, the “% T/C on day” value [4, 7] was 115.4% and the “% Inhibition” value ([4]; day 19, erlotinib 50 PO) was −13.2%. The “% T/C on day” value ([4]; day 19, erlotinib 50 PO) was 113.2%, the “% Inhibition” value [4, 8] was −22.5% and the “% Inhibition” value ([4]; day 22, erlotinib 50 PO) was −4.4%. For the same molecule, the “% T/C on day” value ([4]; day 22, erlotinib 50 PO) was 104.4%, the “% Inhibition” value [4, 9] was 3.6% and the “% T/C on day” value [4, 9] was 96.4%. The “% Inhibition” value ([4]; day 27, erlotinib 50 PO) was −48.6%, the “% T/C on day” value ([4]; day 27, erlotinib 50 PO) was 148.6% and the “% Inhibition” value [4, 10] was 4.0%. For the same molecule, the “% T/C on day” value [4, 10] was 96.0%, the “% Inhibition” value ([4]; day 29, erlotinib 50 PO) was −32.0% and the “% T/C on day” value ([4]; day 29, erlotinib 50 PO) was 132.0%. For the same molecule, the “% Inhibition” value [4, 11] was 3.7%, the “% T/C on day” value [4, 11] was 96.4% and the “% Inhibition” value ([4]; day 33, erlotinib 50 PO) was −15.4%. For the same molecule, the “% T/C on day” value ([4]; day 33, erlotinib 50 PO) was 115.3%, the “% Inhibition” value [4, 12] was −2.7% and the “% T/C on day” value [4, 12] was 102.7%. For the same molecule, the “% Inhibition” value ([4]; day 36, erlotinib 50 PO) was −17.7%, the “% T/C on day” value ([4]; day 36, erlotinib 50 PO) was 117.7% and the “% Inhibition” value [4, 13] was −6.0%. The “% T/C on day” value [4, 13] was 106.0%.
